Measurements as given in patent US9995734B2, “Human T cell line assay for evaluating the immunologic identity of glatiramer acetate preparations” (Mylan Inc., priority 2013, dated 2018).

System: Donor 1 COP T-Cell Lines
Assay: IFN-γ ELISA, Donor 1 COP T-cell lines
Format: cell-based, human
Conditions: for IFN-γ (ELISA), mean: 10 μg/mL, autologous B-LCL; for IFN-γ production in response to GA: 222-2D8, 222-2E1, 222-2B11, 222-2C3, 222-2B8, 222-2G12, 222-2F12
Protocol: Culture medium was removed from cultures prepared as for proliferation assay and utilized to measure cytokine production. In most cases culture medium was collected 18-24 hours after mixing T-cells, APC, and stimulating antigen. Cytokine production was measured by ELISA or bead assay. For measuring cytokine production, 100-150 μL culture medium (100 μL if culture was to be continued, otherwise 150 μL) was removed from each well. In some cases, the culture was continued 48 hours, for a total of 72 hours of culture, and the proliferative response measured.
IFN-γ concentration in culture supernatants was measured by a sandwich ELISA using two anti-IFN-γ monoclonal antibodies. Clone 2G1 was used for capture, and biotinylated antibody from clone B133.5 was used for detection (both from Endogen). Recombinant IFN-γ was used to construct a standard curve ranging from 1000 to 15 pg/mL.
Based on the increases in ATP level observed (i.e., a ratio of relative luminescence in wells with antigen to control wells without antigen of two or more), fifteen presumptive GA-specific T-cell lines in the original plate were moved to a 24-well plate at Day 26 and restimulated with 10 μg/mL Copaxone in the presence of autologous EBV-transformed B-LCL (5×10^5 per well, i.e., 2.5×10^5/mL). At Day 27 IL-2 was added. On Day 34, the fifteen presumptive lines were restimulated with 10 μg/mL GMA or 10 μg/mL COP in the presence of mitomycin-treated autologous B-LCL (4×10^4 per well; 2×10^5 per mL), or incubated with mitomycin-treated autologous B-LCL and no antigen. On Day 35 IL-2 was added to continued cultures. On Day 36 culture supernatant was collected from test cultures and IFN-γ production measured by ELISA (48 hours after restimulation). IFN-γ protein concentrations were determined using a TMB standard curve.

[1] = 222-1G8, 48 hours, T-cells + B-LCL >1000
[2] = 222-1H12, 48 hours, T-cells + B-LCL >1000
[3] = 222-2B8, 48 hours, T-cells + B-LCL 599
[4] = 222-2B11, 48 hours, T-cells + B-LCL 354
[5] = 222-2C3, 48 hours, T-cells + B-LCL 538
[6] = 222-2D8, 48 hours after restimulation, T-cells + B-LCL 270
[7] = 222-2E1, 48 hours, T-cells + B-LCL 457
[8] = 222-2F12, 48 hours, T-cells + B-LCL 295
[9] = 222-2G12, 48 hours, T-cells + B-LCL 515

Row | Substance | IFN-γ (ELISA), mean [1] | IFN-γ (ELISA), mean [2] | IFN-γ (ELISA), mean [3] | IFN-γ (ELISA), mean [4] | IFN-γ (ELISA), mean [5] | IFN-γ production in response to GA | IFN-γ (ELISA), mean [6] | IFN-γ (ELISA), mean [7] | IFN-γ (ELISA), mean [8] | IFN-γ (ELISA), mean [9] | further results
1 | glatiramer acetate [GMA] | >1000 pg/mL | >1000 pg/mL | >1000 pg/mL | >1000 pg/mL | >1000 pg/mL | reacted | >1000 pg/mL | >1000 pg/mL | >1000 pg/mL | >1000 pg/mL | IFN-γ (ELISA), mean (222-1C5, 48 hours, T-cells + B-LCL 821): 776 pg/mL; IFN-γ (ELISA), mean (222-1F8, 48 hours, T-cells + B-LCL 120): 169 pg/mL; IFN-γ (ELISA), mean (222-2C1, 48 hours, T-cells + B-LCL 369): 392 pg/mL; IFN-γ (ELISA), mean (222-2C5, 48 hours, T-cells + B-LCL 325): 245 pg/mL; IFN-γ (ELISA), mean (222-2D2, 48 hours, T-cells + B-LCL 68): 131 pg/mL; IFN-γ (ELISA), mean (222-2G4, 48 hours, T-cells + B-LCL 280): 438 pg/mL
2 | glatiramer acetate [COP] | >1000 pg/mL | >1000 pg/mL | >1000 pg/mL | >1000 pg/mL | >1000 pg/mL | reacted | >1000 pg/mL | >1000 pg/mL | >1000 pg/mL | >1000 pg/mL | IFN-γ (ELISA), mean (222-1C5, 48 hours, T-cells + B-LCL 821, listed as Copaxone): 700 pg/mL; IFN-γ (ELISA), mean (222-1F8, 48 hours, T-cells + B-LCL 120, listed as Copaxone): 156 pg/mL; IFN-γ (ELISA), mean (222-2C1, 48 hours, T-cells + B-LCL 369, listed as Copaxone): 417 pg/mL; IFN-γ (ELISA), mean (222-2C5, 48 hours, T-cells + B-LCL 325, listed as Copaxone): 273 pg/mL; IFN-γ (ELISA), mean (222-2D2, 48 hours, T-cells + B-LCL 68, listed as Copaxone): 133 pg/mL; IFN-γ (ELISA), mean (222-2G4, 48 hours, T-cells + B-LCL 280, listed as Copaxone): 416 pg/mL
